Tests used:
[1] = test system: NaCl treated diabetic rats modeled with heart failure; assay: Chronic heart failure, first batch, ultrasonic cardiogram evaluation; type: in vivo, rat; settings: 10th week of administration; valsartan 10 mg/kg, compound A 18 mg/kg ig
Procedure: The pharmacodynamic evaluation was conducted by using a noninvasive ultrasonic cardiogram method.
Evaluation indexes: (1) morphology indexes: left ventricular posterior wall dimensions (LVPWd), left ventricular diastasis internal diameter (LVDd), end systolic diameter (LVDs); (2) functional indexes: ejection fraction (EF), shortening fraction (FS), ventricular early blood flow filling rate (E), atrial filling rate (A) and ratio of E/A; Doppler tissue image; at cardiac apical four chamber view, the valve ring of anterior mitral valve was used as sampling point, peak early diastolic velocity (Ea peak), peak late diastolic velocity (Aa peak), and Ea/Aa ratio reflected the systolic and diastolic motion of the whole left ventricle.
SPSS statistic software was used to analyze and treat data, and all data were expressed in mean±standard deviation (Mean±SD).

[2] = test system: AGEs; settings: studies in rats, beagles (oral) and mice, CN200610002391.6; cited from earlier work

| SMILES | LVDd and LVDs vs model [1] | PWd vs model [1] | breaking effect on AGEs [2] |
| --- | --- | --- | --- |
| CCCCC(=O)N(Cc1ccc(-c2ccccc2-c2nnn[nH]2)cc1)[C@H](C(=O)O)C(C)C [valsartan, reference compound] | slight decrease | slight increase |  |
| Cc1csc[n+]1CC(=O)OCc1ccccc1.[Br-] [3-benzyloxycarbonylmethyl-4-methyl-thiazole-3-bromide] |  |  | excellent breaking effect on AGEs |
